In US11446287B2, “Compounds and methods for EP300 or CBP modulation and indications therefor” (Opna Immuno-Oncology SA, priority 2019, dated 2022):

target: T1, Recombinant human BRD4 containing dual bromodomains (BRD4-BD12 (1-477)) (Homo sapiens, UniProt O60885); assay: BRD4 Alphascreen binding assay
T1 construct: Recombinant human BRD4 containing dual bromodomains (BRD4-BD12 (1-477)); made in house; host or cells: E. coli BL21-CodonPlus (DE3), modified pET vector
Procedure, shortened: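 AlphaScreen proximity between Ni-chelate-bound BRD4-BD12 (1-477) and streptavidin-captured H4 K5/K8/K12/K16-acetyl peptide measured after 1 h room-temperature compound incubation and 30 min with 7.5 μg/ml beads. Buffer: 50 mM HEPES pH 7.5, 50 mM NaCl, 0.01% BSA, 0.01% Triton X-100; data plate-normalized and four-parameter fit for IC50.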

Compound	IC50
CCOc1cc(C(=O)O)nc(OCC)c1-c1cn(-c2ccc(C#N)cc2F)c2ncc(-c3c(C)noc3C)cc12 [P-0423, 5-(1-(4-cyano-2-fluorophenyl)-5-(3,5-dimethylisoxazol-4-yl)-1H-pyrrolo[2,3-b]pyridin-3-yl)-4,6-diethoxypicolinic acid]	1 to 8 µM
CCOc1cc(C(=O)O)nc(OCC)c1-c1cn(-c2cnc(C3CC3)nc2)c2ncc(-c3c(C)noc3C)cc12 [P-0424, 5-(1-(2-cyclopropylpyrimidin-5-yl)-5-(3,5-dimethylisoxazol-4-yl)-1H-pyrrolo[2,3-b]pyridin-3-yl)-4,6-diethoxypicolinic acid]	1 to 8 µM
CCOc1cc(C(=O)O)nc(OCC)c1-c1cn(C2CCC(F)(F)CC2)c2ncc(-c3c(C)noc3C)cc12 [P-0425, 5-(1-(4,4-difluorocyclohexyl)-5-(3,5-dimethylisoxazol-4-yl)-1H-pyrrolo[2,3-b]pyridin-3-yl)-4,6-diethoxypicolinic acid]	8 to 1000 µM
CCOc1cc(C(=O)O)ncc1-c1cn(C(C2CC2)C2CC2)c2ncc(-c3c(C)noc3C)cc12 [P-0427, 5-(1-(dicyclopropylmethyl)-5-(3,5-dimethylisoxazol-4-yl)-1H-pyrrolo[2,3-b]pyridin-3-yl)-4-ethoxypicolinic acid]	1 to 8 µM
CCOc1cc(C(=O)O)ncc1-c1cn(C2CCOCC2)c2ncc(-c3c(C)noc3C)cc12 [P-0428, 5-(5-(3,5-dimethylisoxazol-4-yl)-1-(tetrahydro-2H-pyran-4-yl)-1H-pyrrolo[2,3-b]pyridin-3-yl)-4-ethoxypicolinic acid]	0.0001 to 1 µM
CCOc1cc(C(=O)O)nc(OCC)c1-c1cn(-c2cn(C(F)F)nc2C)c2ncc(-c3c(C)noc3C)cc12 [P-0429, 5-(1-(1-(difluoromethyl)-3-methyl-1H-pyrazol-4-yl)-5-(3,5-dimethylisoxazol-4-yl)-1H-pyrrolo[2,3-b]pyridin-3-yl)-4,6-diethoxypicolinic acid]	8 to 1000 µM
CCOc1cc(C(=O)O)nc(OCC)c1-c1cn(-c2cn(CC)nc2C)c2ncc(-c3c(C)noc3C)cc12 [P-0430, 5-(5-(3,5-dimethylisoxazol-4-yl)-1-(1-ethyl-3-methyl-1H-pyrazol-4-yl)-1H-pyrrolo[2,3-b]pyridin-3-yl)-4,6-diethoxypicolinic acid]	1 to 8 µM
CCOc1cc(C(=O)O)nc(OCC)c1-n1cc(-c2ccc(F)cc2F)c2ncc(-c3c(C)noc3C)cc21 [P-0431, 5-(3-(2,4-difluorophenyl)-6-(3,5-dimethylisoxazol-4-yl)-1H-pyrrolo[3,2-b]pyridin-1-yl)-4,6-diethoxypicolinic acid]	1 to 8 µM
CCOc1cc(C(=O)OC)nc(OCC)c1-c1cn(-c2ccc(F)cc2F)c2ncc(-c3c(C)noc3C)cc12 [P-0432, methyl 5-(1-(2,4-difluorophenyl)-5-(3,5-dimethylisoxazol-4-yl)-1H-pyrrolo[2,3-b]pyridin-3-yl)-4,6-diethoxypicolinate]	8 to 1000 µM
CCOc1cc(C(=O)O)nc(OCC)c1-c1cn(C2CCN(C(=O)OC(C)(C)C)CC2)c2ncc(-c3c(C)noc3C)cc12 [P-0433, 5-(1-(1-(tert-butoxycarbonyl)piperidin-4-yl)-5-(3,5-dimethylisoxazol-4-yl)-1H-pyrrolo[2,3-b]pyridin-3-yl)-4,6-diethoxypicolinic acid]	8 to 1000 µM
Cc1noc(C)c1-c1cnc2c(c1)c(C1CCC(C(=O)O)CC1)cn2-c1ccc(F)cc1F (centres unmarked) [P-0434, 4-(1-(2,4-difluorophenyl)-5-(3,5-dimethylisoxazol-4-yl)-1H-pyrrolo[2,3-b]pyridin-3-yl)cyclohexane-1-carboxylic acid]	1 to 8 µM
CCOc1cc(C(=O)O)nc(OCC)c1-c1cn(C2CCN(S(C)(=O)=O)CC2)c2ncc(-c3c(C)noc3C)cc12 [P-0435, 5-(5-(3,5-dimethylisoxazol-4-yl)-1-(1-(methylsulfonyl)piperidin-4-yl)-1H-pyrrolo[2,3-b]pyridin-3-yl)-4,6-diethoxypicolinic acid]	8 to 1000 µM
CCOc1cc(C(=O)O)nc(OCC)c1-c1cn(-c2cccnc2)c2ncc(-c3c(C)noc3C)cc12 [P-0436, 5-(5-(3,5-dimethylisoxazol-4-yl)-1-(pyridin-3-yl)-1H-pyrrolo[2,3-b]pyridin-3-yl)-4,6-diethoxypicolinic acid]	1 to 8 µM
Cc1noc(C)c1-c1cnc2c(c1)c(-c1ccc(CC(=O)O)cc1F)cn2-c1ccc(F)cc1F [P-0437]	1 to 8 µM
Cc1noc(C)c1-c1cnc2c(c1)c(-c1ccc(CC(=O)O)cc1)cn2-c1ccc(F)cc1F [P-0438, 2-(4-(1-(2,4-difluorophenyl)-5-(3,5-dimethylisoxazol-4-yl)-1H-pyrrolo[2,3-b]pyridin-3-yl)phenyl)acetic acid]	8 to 1000 µM
Cc1noc(C)c1-c1cnc2c(c1)c(-c1c(Cl)cc(C(=O)O)cc1OC(F)(F)F)cn2-c1cccnn1 [P-0439, 3-chloro-4-(5-(3,5-dimethylisoxazol-4-yl)-1-(pyridazin-3-yl)-1H-pyrrolo[2,3-b]pyridin-3-yl)-5-(trifluoromethoxy)benzoic acid]	0.0001 to 1 µM
COC(=O)c1cc(Cl)c(-c2cn(-c3ccc(C4CC4)nc3)c3ncc(-c4c(C)noc4C)cc23)c(OC(F)(F)F)c1 [P-0440, methyl 3-chloro-4-(1-(6-cyclopropylpyridin-3-yl)-5-(3,5-dimethylisoxazol-4-yl)-1H-pyrrolo[2,3-b]pyridin-3-yl)-5-(trifluoromethoxy)benzoate]	8 to 1000 µM
Cc1noc(C)c1-c1cnc2c(c1)c(-c1c(Cl)cc(C(=O)O)cc1OC(F)(F)F)cn2-c1ccc(C2CC2)nc1 [P-0441, 3-chloro-4-(1-(6-cyclopropylpyridin-3-yl)-5-(3,5-dimethylisoxazol-4-yl)-1H-pyrrolo[2,3-b]pyridin-3-yl)-5-(trifluoromethoxy)benzoic acid]	0.0001 to 1 µM
CCOc1cc(C(=O)O)c(F)cc1-c1cn(C2CCN(C(=O)OC(C)(C)C)CC2)c2ncc(-c3c(C)noc3C)cc12 [P-0442, 4-(1-(1-(tert-butoxycarbonyl)piperidin-4-yl)-5-(3,5-dimethylisoxazol-4-yl)-1H-pyrrolo[2,3-b]pyridin-3-yl)-5-ethoxy-2-fluorobenzoic acid]	8 to 1000 µM
COc1ccc(CC(=O)O)cc1-c1cn(-c2ccc(F)cc2F)c2ncc(-c3c(C)noc3C)cc12 [P-0443, 2-(3-(1-(2,4-difluorophenyl)-5-(3,5-dimethylisoxazol-4-yl)-1H-pyrrolo[2,3-b]pyridin-3-yl)-4-methoxyphenyl)acetic acid]	1 to 8 µM
Cc1noc(C)c1-c1cnc2c(c1)c(-c1cc(F)c(C(=O)O)cc1OC(F)(F)F)cn2-c1ccc(C2CC2)nc1 [P-0444, 4-(1-(6-cyclopropylpyridin-3-yl)-5-(3,5-dimethylisoxazol-4-yl)-1H-pyrrolo[2,3-b]pyridin-3-yl)-2-fluoro-5-(trifluoromethoxy)benzoic acid]	1 to 8 µM
CCOc1cc(C(=O)O)c(F)cc1-c1cn(C2CCN(C(=O)C(C)(C)C)CC2)c2ncc(-c3c(C)noc3C)cc12 [P-0445, 4-(5-(3,5-dimethylisoxazol-4-yl)-1-(1-pivaloylpiperidin-4-yl)-1H-pyrrolo[2,3-b]pyridin-3-yl)-5-ethoxy-2-fluorobenzoic acid]	8 to 1000 µM
CCOc1cc(C(=O)O)c(F)cc1-c1cn(C2CCN(CCC#N)CC2)c2ncc(-c3c(C)noc3C)cc12 [P-0446, 4-(1-(1-(2-cyanoethyl)piperidin-4-yl)-5-(3,5-dimethylisoxazol-4-yl)-1H-pyrrolo[2,3-b]pyridin-3-yl)-5-ethoxy-2-fluorobenzoic acid]	8 to 1000 µM
CCOc1cc(C(=O)O)c(F)cc1-c1cn(C2CCN(C(=O)CO)CC2)c2ncc(-c3c(C)noc3C)cc12 [P-0447, 4-(5-(3,5-dimethylisoxazol-4-yl)-1-(1-(2-hydroxyacetyl)piperidin-4-yl)-1H-pyrrolo[2,3-b]pyridin-3-yl)-5-ethoxy-2-fluorobenzoic acid]	8 to 1000 µM
CCc1onc(C)c1-c1cnc2c(c1)c(-c1c(Cl)cc(C(=O)O)cc1OC(F)(F)F)cn2-c1ccc(C2CC2)nc1 [P-0448, 3-chloro-4-(1-(6-cyclopropylpyridin-3-yl)-5-(5-ethyl-3-methylisoxazol-4-yl)-1H-pyrrolo[2,3-b]pyridin-3-yl)-5-(trifluoromethoxy)benzoic acid]	1 to 8 µM
Cc1nnn(C)c1-c1cnc2c(c1)c(-c1cccc(C(=O)O)c1)cn2[C@@H](C)c1ccccn1 [P-0449, (S)-3-(5-(1,4-dimethyl-1H-1,2,3-triazol-5-yl)-1-(1-(pyridin-2-yl)ethyl)-1H-pyrrolo[2,3-b]pyridin-3-yl)benzoic acid]	1 to 8 µM
